# Columns and labels:
# [1] = Plasma protein binding, rapid equilibrium dialysis; type: in vitro ADME; conditions: human plasma, 1 µM, 16 hrs
# Procedure: Measurement of aqueous kinetic solubility at pH 7.5
# Solubility was measured in 50 mM HEPES, 100 mM NaCl (15% D2O, 85% H2O) in the presence of 1 mM TCEP at pH 7.5. Samples were prepared at 50 mM in DMSO-d6, diluted x 50 into buffer affording nominal concentrations of 1 mM and analysed by 1H quantitative NMR. Spectra were acquired at 300K in 5 mm tubes on a 400 MHz Bruker Avance III HD spectrometer equipped with a BBO-F probe using water suppression (presat/Watergate). A 5 mM sample of 4-hydroxybenzoic acid was used as the qNMR standard. The raw data files were processed using MNova with qNMR […]
# Caco-2 permeability Assay
# The permeability of Compound 4 was assessed using the CacoReady system.
# Compound 4 and control compounds (propranolol, antipyrine, and vinblastine) were incubated at a final concentration of 10 µM in duplicate to either the apical (180 µL) of the monolayer to measure apical to basolateral transport (A > B) across the cell barrier or to the basolateral side (750 µL) to measure the basolateral to apical transport (B > A). […]
# Plasma protein binding measured using the rapid equilibrium dialysis (RED) device system. […] Percent bound was calculated as the ([plasma cmpt] / [plasma cmpt + […]
# [2] = test system: eIF4E WT or mutant expression; assay: Immunoblot of eIF4E rescue construct expression; type: cell-based, human; conditions: n=3
# Description: Supplementary Fig. 17. Transfection of wild type eIF4E or a series of mutants […]
# clone. a Scheme of the workflow to generate genetic rescue models by expression of wild type (WT) eIF4E or mutant eIF4E in the dTAG eIF4E CRISPR clones (Created in BioRender. Powers, M. (2024) https://BioRender.com/q02f176). b Representative […]
# replicates). Vinculin was used as a loading control. The immunoblots were cropped to […]
# (1 picture or pasted object on this page, not shown here) […]
# aid interpretation of the data, original immunoblot images for all repeats are available in the Supplementary Source Data. d Quantification of MCL1 immunoblot signals using Image J. Results are expressed as % MCL-1 normalized to vinculin (mean ± SEM from (c) plus 2 additional biological replicates (see Supplementary Source Data).
# Significance (p<0.05) was determined using a one sample t-test (two-tailed) comparing treatment with the control from each cell line. Significance was observed […]
# p=0.0153) expressing cells. p values are denoted as *p<0.05, **p<0.01, ***p<0.001, […]
# and f 16 hr from (c), using Image J. A one sample t -test was performed for each cell treatment compared to their control and found no significant differences for either tim e point (p>0.05) . Comparison of the control conditions for expression of each mutant with the overexpressed WT using an ordinary one-way ANOVA with Tukey multiple comparisons test found all mutants p<0.001 except S209A (p=0.0337) at 6 hr and all
structure (smiles),measurement,setting,value
CC[C@H](O[C@H](C)CO)c1ccc(-c2ccccc2F)cc1NCCO [Compound 4],Plasma protein binding,[1],98.9%
CC[C@H](C(=O)N1CCCC[C@H]1C(=O)O[C@H](CCc1ccc(OC)c(OC)c1)c1ccccc1OCC(=O)NCCCCCCC(=O)N[C@H](C(=O)N1C[C@H](O)C[C@H]1C(=O)N[C@@H](C)c1ccc(-c2scnc2C)cc1)C(C)(C)C)c1cc(OC)c(OC)c(OC)c1 [dTAG^V-1],"Quantification of eIF4E (6 hr) normalised to WT expression, Average","[2]; C3-1, 0.5 uM",0.00
same,"Quantification of eIF4E (16 hr) normalised to WT expression, Average","[2]; C3-1, 0.5 uM",0.00
same,"Quantification of eIF4E (6 hr) normalised to WT expression, Average","[2]; C3-1, 1 uM",0.00
same,"Quantification of eIF4E (16 hr) normalised to WT expression, Average","[2]; C3-1, 1 uM",0.00
same,"Quantification of eIF4E (6 hr) normalised to WT expression, Average","[2]; L85R, 0.5 uM",51.11
same,"Quantification of eIF4E (16 hr) normalised to WT expression, Average","[2]; L85R, 0.5 uM",19.14
same,"Quantification of eIF4E (6 hr) normalised to WT expression, Average","[2]; L85R, 1 uM",46.78
same,"Quantification of eIF4E (16 hr) normalised to WT expression, Average","[2]; L85R, 1 uM",21.33
same,"Quantification of eIF4E (6 hr) normalised to WT expression, Average","[2]; L134R, 0.5 uM",32.49
same,"Quantification of eIF4E (16 hr) normalised to WT expression, Average","[2]; L134R, 0.5 uM",17.61
same,"Quantification of eIF4E (6 hr) normalised to WT expression, Average","[2]; L134R, 1 uM",23.94
same,"Quantification of eIF4E (16 hr) normalised to WT expression, Average","[2]; L134R, 1 uM",19.17
same,"Quantification of eIF4E (6 hr) normalised to WT expression, Average","[2]; S209A, 0.5 uM",94.19
same,"Quantification of eIF4E (16 hr) normalised to WT expression, Average","[2]; S209A, 0.5 uM",103.66
same,"Quantification of eIF4E (6 hr) normalised to WT expression, Average","[2]; S209A, 1 uM",88.26
same,"Quantification of eIF4E (16 hr) normalised to WT expression, Average","[2]; S209A, 1 uM",106.16
same,"Quantification of eIF4E (16 hr) normalised to WT expression, Average","[2]; W56A, 0.5 uM (Conc column empty, by row)",63.22
same,"Quantification of eIF4E (6 hr) normalised to WT expression, Average","[2]; W56A, 0.5 uM",56.71
same,"Quantification of eIF4E (16 hr) normalised to WT expression, Average","[2]; W56A, 1 uM (Conc column empty, by row)",50.88
same,"Quantification of eIF4E (6 hr) normalised to WT expression, Average","[2]; W56A, 1 uM",52.12
same,"Quantification of eIF4E (6 hr) normalised to WT expression, Average","[2]; W73F/L85R, 0.5 uM",30.95
same,"Quantification of eIF4E (16 hr) normalised to WT expression, Average","[2]; W73F/L85R, 0.5 uM",15.77
same,"Quantification of eIF4E (6 hr) normalised to WT expression, Average","[2]; W73F/L85R, 1 uM",30.11
same,"Quantification of eIF4E (16 hr) normalised to WT expression, Average","[2]; W73F/L85R, 1 uM",16.64
same,"Quantification of eIF4E (6 hr) normalised to WT expression, Average","[2]; W73F, 0.5 uM",72.55
same,"Quantification of eIF4E (16 hr) normalised to WT expression, Average","[2]; W73F, 0.5 uM",42.45
same,"Quantification of eIF4E (6 hr) normalised to WT expression, Average","[2]; W73F, 1 uM",71.88
same,"Quantification of eIF4E (16 hr) normalised to WT expression, Average","[2]; W73F, 1 uM",30.23
same,"Quantification of eIF4E (6 hr) normalised to WT expression, Average","[2]; WT, 0.5 uM",100.00
same,"Quantification of eIF4E (16 hr) normalised to WT expression, Average","[2]; WT, 0.5 uM",100.00
same,"Quantification of eIF4E (6 hr) normalised to WT expression, Average","[2]; WT, 1 uM",100.00
same,"Quantification of eIF4E (16 hr) normalised to WT expression, Average","[2]; WT, 1 uM",100.00

# Source: article PMC11868579 (Nature Communications, 2024)
